Where “and” joins values, the source holds several entries; their conditions need not be identical. Identical values can stand only once. Entries after “also recorded” stand apart in the source; their conditions may differ. Like-named read-outs stand apart in the source and are kept apart here.
Columns and labels:
M.tb-CM = tested on: M.tb-CM; parameters: method as in doi:10.1039/C1MD00148E; conditions: read-out: IC50, inhibition of M.tb-CM; cited from earlier work
[1] = biological target: M.tb chorismate mutase (M.tb-CM) (Mycobacterium tuberculosis, UniProt P9WIB9); experiment: CM assay (in vitro substrate competition enzymatic assay, chorismate to prephenate, OD 274 nm); type: biochemical
Protocol: The activity of the CM enzyme was based on direct observation of the conversion of chorismate to prephenate at OD 274 nm.[32] The reaction volume of the assay was maintained at 100 μl. 1mM of the substrate, chorismic acid (Sigma) was pre-incubated at 37°C for 5 min in the buffer (containing 50mM Tris-HCl (pH 7.5), 0.5mM EDTA, 0.1 mg/mL bovine serum albumin, and 10 mM β-Mercaptoethanol). The reaction was started by adding 180 pmol of CM enzyme to the prewarmed chorismic acid solution. Inhibitory screening of the compounds against CM activity was measured at 100 nM to 50 μM concentration of the effectors. The reaction was allowed to proceed at 37°C and was terminated after 5 min with 100 μl of 1 N HCl. Disappearance of substrate was measured at 274 nm. A blank with no enzyme for every reaction was kept as a control to account for the non-enzymatic conversion of chorismate to prephenate.

M.tb H37Rv cells = experiment: In vitro amino acid supplementation (rescue) growth experiment; type: cell-based, Mycobacterium tuberculosis; conditions: amino acid 100 μg/mL
MDR-M.tb ATCC 35825 = experiment: Broth dilution MIC by turbidometry; type: cell-based; conditions: Mycobacterium tuberculosis, ATCC35825
M.tb. ATCC-27294 strain = experiment: MIC against M.tb ATCC-27294; type: cell-based; conditions: Mycobacterium tuberculosis, ATCC27294
[2] = tested on: intracellular MDR-M.tb H37Rv (ATCC 35825) in activated THP-1 macrophages; experiment: Intracellular efficacy THP-1 macrophage assay, MDR-M.tb ATCC 35825; type: cell-based, Mycobacterium tuberculosis; conditions: for cfu reduction vs day 7 control, combination study: Fig 4E, DRILS-1398 15 μM, rifampicin 19.45 μM, alone or combined
in vitro = in vitro ADME; conditions: mouse, plasma
Protocol: DRILS-1398 (5μM) was added to both sides of the membrane in an equilibrium dialysis system. Species-specific plasma (50% or 100%) was added to one side, and the system was allowed to reach equilibrium at 37 °C. LC-MS/MS measurements of compound concentration were performed on both sides of the membrane and the fraction of unbound compound was presented.[52]

[3] = Single-dose oral pharmacokinetics in male BALB/c mice; conditions: mouse, in vivo
Protocol: Male BALB/c mice aged 8-9 weeks were used for experimentation after a minimum of 3 days of acclimatization.[38]^,[39]^,[40] Fasted animals were administered with DRILS-1398 or DRILS-1398 (F) in a recommended vehicle (1%(v/v) Tween 80 + 99% (v/v) of 0.5% (w/v) Carboxymethylcellulose sodium salt in ultrapure water) by oral route with a dose of 50 mg/kg body weight of DRILS-1398 or 10 mg/kg and 30 mg/kg for DRILS-1398(F) at a dose volume of 10 mL/kg b.w. Under mild isoflurane anesthesia, a blood specimen was collected into pre-labeled tubes containing anticoagulant (K2EDTA - 2 mg/mL blood) during the next 24 hours of post-dose (Table-PK study design chart). The collected blood specimens were centrifuged at 6000 rpm, 4°C for 10 min, and plasma was separated and stored at -80°C until analysis. […] Concentrations of analyte DRILS-1398 in mice plasma samples were determined using the Shimadzu LCMS-8045 LC-MS/MS system. The protocols were approved by the Institutional Animal Ethics Committee of the Preclinical Research Department, Anthem Biosciences Pvt. Ltd., Bangalore 560099, India (Study no for 50mg/kg PK study: N20084, (ABD/IASE/PR/185/19-22) and the study no for PK studies for 10mg/kg and 30mg/kg of DRILS-1398(F): ABD-8056 and ABD-7967A (ABD/IAEC/PR/89-17-20) respectively.

[4] = Single-dose IV pharmacokinetics in male BALB/c mice; type: in vivo; conditions: mouse, 10 mg/kg
Protocol: The intravenous (IV) (10 mg/kg of DRILS-1398) dosing study on BALB/c male mice (n=3 per time point, not more than 2 bleeds per animal, total animals dosed n=12) was carried out on the following time points through saphenous veins; IV: 15 mins, 30 mins, 1, 2, 4, 6, 8 and 24 hr. Collected blood specimens were centrifuged at 6000rpm, 4°C for 10 minutes, and plasma was separated and stored at -80°C until analysis. […] Concentrations of analyte DRILS-1398 in mice plasma samples were determined using the Shimadzu LCMS-8045 LC-MS/MS system. The protocol was approved by the Institutional Animal Ethics Committee of the Preclinical Research Department, Anthem Biosciences Pvt. Ltd., Bangalore 560099, India (protocol number for 10 mg/kg IV PK study: ABD-7967B (ABD/IAEC/PR/89-17-20).

[5] = Repeated dose 7-day toxicity study; type: in vivo, BALB/c mice
Protocol: As per the guideline,[58]^,[59] 40 males and 40 females were assigned into four groups of ten animals/sex per group viz., Vehicle control (G1), Low dose (G2), Mid Dose (G3) and High dose (G4). The test item formulations were prepared freshly in Ultra-pure water type 1 as a vehicle. The vehicle alone was administered to the vehicle control (G1) animals. Test item formulations were administered daily once at dose levels of 125 (G2), 250 (G3) and 500 (G4) mg/kg b.w./day. All the animals were administered a dose volume of 10 mL/kg b.w. once daily for 7 consecutive days. All the animals were observed once daily for clinical signs, twice daily for mortality/morbidity, and on day 7 for detailed clinical examination. Body weights and feed consumption were recorded at weekly intervals. At the end of the experimental period (day 8), blood and harvested plasma specimens were analyzed for haematology and clinical chemistry parameters, respectively. Subsequently, the animals were euthanized and subjected to gross pathological examination. The specified organs were collected and preserved in 10% NBF for histopathological evaluation. The protocol was approved by the Institutional Animal Ethics Committee of the Preclinical Research Department, Anthem Biosciences Pvt. Ltd., Bangalore 560099, India. Study no: N23041 (ABD/IAEC/PR/296-23-24).

[6] = microsomes; for Mouse microsomal stability: 3 µM
CYP 2C9 = CYP 2C9 (Homo sapiens, UniProt P11712); experiment: biochemical
Protocol: (§1) This study performed CYP inhibition assay using Vivid CYP P450 (1A2, 2C9, 2C19, 2D6, and 3A4) blue screening kits.[56] […] The fluorescent reading was taken using a microplate reader at excitation/emission wavelengths of 415/460 nm, respectively. The % of CYP inhibition of test/positive control at each tested concentration was calculated, and the IC50 value against each CYP isoform was plotted using Graph pad prism software.

CYP 2C19 = CYP 2C19 (Homo sapiens, UniProt P33261); experiment: biochemical
Protocol: as §1

CYP 2D6 = CYP 2D6 (Homo sapiens, UniProt P10635); experiment: biochemical
Protocol: as §1

CYP 3A4 = CYP 3A4 (Homo sapiens, UniProt P08684); experiment: biochemical
Protocol: as §1

[7] = tested on: Salmonella typhimurium TA98, TA100 and TA1537; experiment: Bacterial reverse mutation test (Ames); conditions: 3000.0, 949.5, 300.0, 94.9 and 30.0 μg/plate, with and without rat liver S9
CYP 1A2 = CYP 1A2 (Homo sapiens, UniProt P05177); experiment: Vivid CYP inhibition, fluorescent substrate method
Protocol: as §1

M.tb H37Rv [8] = experiment: Histopathology (H&E, ZN stain) of lungs of infected mice; conditions: for Granuloma in the lung: DRILS-1398 and DRILS-1398(F) 30 mg/kg, isoniazid 5 mg/kg; for Acid-fast bacilli load in lung, ZN staining: vs infected mice without drug
[9] = tested on: intracellular M.tb H37Rv (ATCC 27294) in activated THP-1 macrophages; experiment: Intracellular efficacy THP-1 macrophage assay, M.tb H37Rv ATCC 27294; conditions: for cfu reduction vs day 3 control, combination study / cfu reduction vs day 7 control, combination study: Fig 4D, DRILS-1398 15 μM, rifampicin 19.45 μM, alone or combined
Protocol: The THP-1 cells were activated with PMA (phorbol 12-myristate-13-acetate) for differentiation into macrophages. After 72 hr of activation, the THP-1 macrophages were infected with M.tb H37Rv strain (ATCC-27294 and ATCC-35825) at a multiplicity of infection (MOI) of 1:10.[34]^,[35] The macrophage infection was allowed for 2 hrs at 37°C with 5% CO2. The media containing M.tb was discarded, and macrophage monolayers were washed twice with phosphate-buffered saline to remove the extracellular bacteria and replenished with fresh, complete RPMI. The M.tb-infected macrophages were exposed to compounds by transferring 200 μL of fresh media containing the respective concentrations of the compounds. Duplicate wells were lysed (0.05% SDS) at specific time points and enumerated to estimate the numbers of intracellular M.tb 2 hr post-infection. The 0.1 mL of lysate was serially diluted and plated onto Middle brook 7H11 agar plates for enumeration (read after 3 to 4 weeks) of live M.tb after compound treatment. After 3 and 7 day exposure to the compounds, the cells were treated the same way, and the live M.tb was enumerated. The efficacy of the test compound was assessed by comparing the M.tb counts from the respective days to day 0 and day 7.

M.tb H37Rv [10] = experiment: In vivo efficacy study, M.tb H37Rv infected mice (CFU in lung and spleen); conditions: 10-50 mg/kg on alternate days for four weeks
[11] = up to 500 mg/kg b.w./day, 7 days
[12] = Table S4, lung of infected treated mice

Chain of M.tb chorismate mutase (M.tb-CM) (P9WIB9 34-199): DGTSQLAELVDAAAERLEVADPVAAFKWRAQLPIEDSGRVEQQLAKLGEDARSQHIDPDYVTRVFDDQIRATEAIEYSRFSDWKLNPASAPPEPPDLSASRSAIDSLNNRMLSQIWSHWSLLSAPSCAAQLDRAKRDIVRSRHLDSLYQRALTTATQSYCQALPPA
Chain of CYP 2C9 (P11712 whole entry): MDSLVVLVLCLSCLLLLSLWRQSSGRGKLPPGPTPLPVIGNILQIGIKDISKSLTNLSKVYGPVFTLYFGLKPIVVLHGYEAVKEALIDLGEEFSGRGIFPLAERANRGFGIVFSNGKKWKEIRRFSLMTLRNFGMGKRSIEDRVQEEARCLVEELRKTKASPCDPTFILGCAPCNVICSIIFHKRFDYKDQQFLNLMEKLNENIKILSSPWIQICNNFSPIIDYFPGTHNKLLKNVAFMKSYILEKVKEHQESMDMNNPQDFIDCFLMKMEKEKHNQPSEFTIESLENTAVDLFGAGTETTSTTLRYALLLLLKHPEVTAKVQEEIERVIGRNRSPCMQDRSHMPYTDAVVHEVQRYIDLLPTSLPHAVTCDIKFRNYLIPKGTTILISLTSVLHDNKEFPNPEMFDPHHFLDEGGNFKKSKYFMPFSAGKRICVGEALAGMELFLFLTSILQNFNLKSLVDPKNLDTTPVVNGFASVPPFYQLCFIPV
Chain of CYP 2D6 (P10635 whole entry): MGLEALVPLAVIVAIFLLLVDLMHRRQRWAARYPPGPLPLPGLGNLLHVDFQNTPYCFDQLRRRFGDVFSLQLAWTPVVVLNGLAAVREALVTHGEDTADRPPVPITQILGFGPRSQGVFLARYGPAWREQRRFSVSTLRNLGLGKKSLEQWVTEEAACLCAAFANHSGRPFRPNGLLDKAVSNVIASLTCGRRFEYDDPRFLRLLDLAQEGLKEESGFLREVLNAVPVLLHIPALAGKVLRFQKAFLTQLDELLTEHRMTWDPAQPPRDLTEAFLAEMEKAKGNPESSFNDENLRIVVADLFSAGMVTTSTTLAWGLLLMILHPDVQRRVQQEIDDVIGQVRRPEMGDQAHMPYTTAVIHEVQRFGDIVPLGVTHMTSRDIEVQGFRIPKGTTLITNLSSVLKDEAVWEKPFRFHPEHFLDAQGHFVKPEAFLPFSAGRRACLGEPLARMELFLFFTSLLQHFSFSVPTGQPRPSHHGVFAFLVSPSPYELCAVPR
Chain of CYP 1A2 (P05177 whole entry): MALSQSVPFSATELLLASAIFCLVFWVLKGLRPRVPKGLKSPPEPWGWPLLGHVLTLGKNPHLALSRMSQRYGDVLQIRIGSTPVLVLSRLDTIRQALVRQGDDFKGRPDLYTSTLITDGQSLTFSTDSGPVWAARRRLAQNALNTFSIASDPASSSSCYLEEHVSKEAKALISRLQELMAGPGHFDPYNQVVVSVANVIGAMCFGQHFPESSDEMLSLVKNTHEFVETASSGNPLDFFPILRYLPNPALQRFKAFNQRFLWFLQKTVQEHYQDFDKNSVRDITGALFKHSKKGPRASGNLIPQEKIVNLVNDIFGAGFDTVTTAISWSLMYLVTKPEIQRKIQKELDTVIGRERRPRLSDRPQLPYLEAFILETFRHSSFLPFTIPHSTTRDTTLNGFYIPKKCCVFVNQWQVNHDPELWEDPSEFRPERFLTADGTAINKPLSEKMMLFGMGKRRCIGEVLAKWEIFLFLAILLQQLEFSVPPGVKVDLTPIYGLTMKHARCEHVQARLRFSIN
Chain of CYP 2C19 (P33261 whole entry): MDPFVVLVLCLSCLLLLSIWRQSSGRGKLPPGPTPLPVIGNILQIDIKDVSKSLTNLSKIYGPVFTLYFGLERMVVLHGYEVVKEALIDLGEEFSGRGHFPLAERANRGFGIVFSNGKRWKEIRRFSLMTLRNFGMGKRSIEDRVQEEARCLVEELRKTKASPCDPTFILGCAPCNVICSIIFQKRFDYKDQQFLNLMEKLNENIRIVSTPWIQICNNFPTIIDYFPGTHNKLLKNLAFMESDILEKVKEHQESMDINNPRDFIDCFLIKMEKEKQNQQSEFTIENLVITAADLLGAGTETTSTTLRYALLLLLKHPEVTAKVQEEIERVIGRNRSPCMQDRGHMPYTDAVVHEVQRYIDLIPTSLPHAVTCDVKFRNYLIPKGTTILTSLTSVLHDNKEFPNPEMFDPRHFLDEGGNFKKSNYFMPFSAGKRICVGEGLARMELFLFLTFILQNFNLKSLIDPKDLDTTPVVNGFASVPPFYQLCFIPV
Chain of CYP 3A4 (P08684 whole entry): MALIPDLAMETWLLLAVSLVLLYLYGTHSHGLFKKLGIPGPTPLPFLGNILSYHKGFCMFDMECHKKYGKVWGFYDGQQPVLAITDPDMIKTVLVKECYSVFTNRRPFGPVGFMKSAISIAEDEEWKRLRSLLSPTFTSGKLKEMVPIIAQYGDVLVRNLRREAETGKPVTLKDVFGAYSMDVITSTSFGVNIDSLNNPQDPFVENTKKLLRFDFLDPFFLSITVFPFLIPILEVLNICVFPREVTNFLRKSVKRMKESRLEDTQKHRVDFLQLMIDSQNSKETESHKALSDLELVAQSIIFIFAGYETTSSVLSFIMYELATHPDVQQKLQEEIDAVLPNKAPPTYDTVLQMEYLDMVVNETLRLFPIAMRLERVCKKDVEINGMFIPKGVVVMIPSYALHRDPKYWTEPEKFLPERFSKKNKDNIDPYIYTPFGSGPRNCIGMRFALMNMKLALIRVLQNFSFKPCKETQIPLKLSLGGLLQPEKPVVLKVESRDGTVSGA

Structure (SMILES): CS(=O)(=O)Nc1ccc(F)cc1-c1cc2cc(F)ccc2n1S(C)(=O)=O [B]
- IC50 (M.tb-CM): ~17 µM

Structure (SMILES): CCCc1nn(C)c2c(-c3c[nH]c4ccc(Cl)cc34)nc(-c3ccc(Cl)cc3)nc12 [DRILS-1398]
- IC50 ([1]; IC50, inhibition of M.tb-CM activity, n = 3): 3 µM and ~3 µM
- IC90 ([1]; read-out: IC90, inhibition of M.tb-CM activity): 10 µM
- Growth of M.tb H37Rv with compound, amino acids added after 24 h (M.tb H37Rv cells; 4 μg/mL compound, until 96 h): showed inhibitory effects up to 24 h
- Growth of M.tb H37Rv with compound and tyrosine or phenylalanine added at time 0 (M.tb H37Rv cells; ~10 μM compound, 24-96 h): amino acid supplementation rescued the cells from the inhibitory effects
- MIC (MDR-M.tb ATCC 35825): 4 µg/mL and ~10 µM
- MIC (M.tb. ATCC-27294 strain; M.tb ATCC-27294): 6.53 µg/mL
- MIC (M.tb. ATCC-27294 strain; M.tb ATCC-27294, converted): ~15 µM
- cfu reduction vs day-3 control ([2]; Fig 4C, day 3, C1: DRILS-1398 15 μM, rifampicin 13.16 μM): 0.40 log10 cfu/mL
- cfu reduction vs day-7 control ([2]; Fig 4C, day 7, C1: DRILS-1398 15 μM, rifampicin 13.16 μM): 0.70 log10 cfu/mL
- cfu reduction vs day 7 control, combination study ([2]; day 7): 0.77 log10 cfu/mL
- fraction unbound at 5 µM (in vitro): ~0.0184
- AUC(0-inf) ([3]; male, BALB/c, po, 50 mg/kg): 21400 ng·h/mL
- AUCextrap ([3]; male, BALB/c, po, 50 mg/kg): 10.30%
- Cmax ([3]; male, BALB/c, po, 50 mg/kg): 1580 ng/mL
- MRT last ([3]; male, BALB/c, po, 50 mg/kg): 7.52 h
- Tmax ([3]; male, BALB/c, po, 50 mg/kg): 4 h
- AUC(0-t) ([3]; male, BALB/c, oral 50 mg/kg): 19200 ng·h/mL
- half-life ([3]; male, BALB/c, oral 50 mg/kg): 6.95 h
- Adverse clinical signs during PK treatment ([3]; po, 50 mg/kg): did not show any adverse clinical signs
- Approximate free drug concentration in blood plasma ([4]; in vivo): ~0.4 µM
- clearance ([4]; in vivo): 35 mL/min/kg
- half-life ([4]; plasma, IV 10 mg/kg): ~8.25 h
- Clinical signs of toxicity, mortality/morbidity ([5]; oral gavage up to 500 mg/kg b.w./day once daily for 7 days, both genders): no adverse clinical signs of toxicity and mortality/morbidity
- Effects on body weight, weight gain, feed consumption, hematological and clinical chemistry parameters [5, 11]: No treatment-related adverse effects
- Histopathological evaluation of examined tissues [5, 11]: no treatment-related adverse effects
- Mouse microsomal stability ([6]; 2 min): 56.45%
- Mouse microsomal stability ([6]; 5 min): 53.42%
- Mouse microsomal stability ([6]; 0.25 h): 42.18%
- Mouse microsomal stability ([6]; 0.75 h): 24.61%
- Mouse microsomal stability ([6]; 2 h): 26.57%
- Microsomal stability, verdict ([6]; mouse): moderately stable
- solubility (physchem): ≥ 50 mg/mL
- IC50 (CYP 2C9): 12.2 µM
- IC50 (CYP 2C19): 13.7 µM
- IC50 (CYP 2D6): > 30 µM
- IC50 (CYP 3A4): > 30 µM
- Mutagenic potential [7]: did not show any mutagenic potential; also recorded: non-mutagenic
- IC50 (CYP 1A2): > 30 µM
- Granuloma in the lung (M.tb H37Rv [8]): no signs of granuloma
- Granuloma (M.tb H37Rv [8]; [12]): -
- Necrosis of the lung tissue (M.tb H37Rv [8]; mouse, in vivo): not observed
- Acid-fast bacilli load in lung, ZN staining (M.tb H37Rv [8]): significant decrease in bacilli load
- cfu reduction vs day-3 control ([9]; Fig 4B, day 3, C1: DRILS-1398 15 μM, rifampicin 13.16 μM): 0.59 log10 cfu/mL
- cfu reduction vs day-7 control ([9]; Fig 4B, day 7, C1: DRILS-1398 15 μM, rifampicin 13.16 μM): 1.00 log10 cfu/mL
- cfu reduction vs day 3 control, combination study ([9]; day 3): 0.42 log10 cfu/mL
- cfu reduction vs day 7 control, combination study ([9]; day 7): 0.98 log10 cfu/mL
- Clearance of M.tb H37Rv infection in lungs and spleen (CFU) (M.tb H37Rv [10]): successful in clearing M.tb infection from the lungs and spleen; also recorded: effectively cleared

Structure (SMILES): NNC(=O)c1ccncc1 [Isoniazid, reference compound]
- Granuloma in the lung (M.tb H37Rv [8]): no signs of granuloma
- Granuloma (M.tb H37Rv [8]; [12]): -
- ZN stain (Acid Fast Bacilli) (M.tb H37Rv [8]; [12]): +
- Acid-fast bacilli load in lung, ZN staining (M.tb H37Rv [8]): minimal presence of bacilli

Structure (SMILES): CO[C@H]1/C=C/O[C@@]2(C)Oc3c(C)c(O)c4c(O)c(c(/C=N/N5CCN(C)CC5)c(O)c4c3C2=O)NC(=O)/C(C)=C\C=C\[C@H](C)[C@H](O)[C@@H](C)[C@@H](O)[C@@H](C)[C@H](OC(C)=O)[C@@H]1C [Rifampicin, reference compound]
- cfu reduction vs day 7 control, combination study ([2]; day 7): 1.96 log10 cfu/mL
- cfu reduction vs day 3 control, combination study ([9]; day 3): 1.26 log10 cfu/mL
- cfu reduction vs day 7 control, combination study ([9]; day 7): 2.28 log10 cfu/mL

— paper PMC12144419, “Early preclinical development of Mycobacteriumtuberculosis amino acid biosynthesis pathway inhibitor DRILS-1398 as a potential anti-TB drug” (iScience, 2025)
